Data on 21 molecules can be found in US11384060B2, “Amide compounds and use thereof” (ALPHALA CO., LTD., priority 2017, dated 2022).

In assay [1] the target is T1, glucagon receptor (GCGR) (Homo sapiens, UniProt P47871).
T1 construct: expressed in transfected cells; host or cells: CHO-K1 cells overexpressing GCGR (membrane fractions)
In words: I125-glucagon binding assay (competition, GCGR membrane fractions). How it is done: I^125-Glucagon Binding Assay
The binding affinity of each compound was evaluated by a competition assay with I^125-glucagon. GCGR membrane fractions were obtained from GCGR overexpressed CHO-K1 cells as a stock of 1 mg/ml concentration. To evaluate the IC50 of compounds binding to GCGR, GCGR membrane fractions were treated with compounds with a serial dilution. The membrane fractions were diluted to 7.5 microgram per well in 70 microliter assay buffer contained 50 mM Tris pH 7.4 and 0.5% (w/v) bovine serum albumin and added into 96 wells plate. The membrane fractions were then mixed with 10 microliter diluted compounds. After 5 minutes pre-incubation, 20 microliter I^125 labeled glucagon (Perkin Elmer) was added into each well at the final concentration of 0.0625 nM. The assay mixtures were incubated at 25° C. for 30 minutes and then transferred onto the Millipore MultiScreen GF/B Plate coated with 0.5% (w/v) Polyethyleneimine. The filter plate was washed with wash buffer contained 50 mM Tris pH 7.4 for 2 times, 300 microliter each time. The residual isotope was detected by Hidex CHAMELEON V micro-beta counter and the IC50 value of each compound binding to GCGR was calculated with non-linear regression.

The target of assay [2] is T2, glucagon receptor (GCGR) overexpressed CHO-K1 cells or human primary hepatocytes (Homo sapiens, UniProt P47871).
T2 construct: expressed in transfected cells; host or cells: GCGR overexpressed CHO-K1 cells or human primary hepatocytes (endogenous receptor)
Put plainly: Glucagon cAMP inhibition assay (Cisbio cAMP Dynamic 2 HTRF). Type of assay: cell-based. How it is done: Glucagon cAMP Inhibition Assay
Downstream secondary messenger cAMP induced by glucagon was detected by Cisbio cAMP Dynamic 2 kit. Testing compounds were each prepared as a dimethyl sulfoxide (DMSO) solution at the concentration of 10 mM. To evaluate the potency of compounds in inhibiting the cAMP production, glucagon receptor (GCGR) overexpressed CHO-K1 cells or human primary hepatocytes were treated with compounds with a serial dilution. The cells were re-suspended in Hank's Balanced Salt solution (HBSS) contained 0.1% (w/v) bovine serum albumin and 800 nM 3-isobutyl-1-methylxanthine (IBMX) and seeded into low volume, 384 wells white plate. The diluted compounds were then added into the plate for 30 minutes pre-incubation where the final DMSO concentration was 1%. The cells were stimulated with glucagon at the concentration equaled to EC50 (an indicium of the concentration of a drug that gives half-maximal response) for 30 minutes at room temperature. After incubation, lysis buffer contain cAMP antibody and fluorescence acceptor were added into each well for additional 60 minutes incubation. Results were recorded by Molecular Devices SpectraMax Paradigm with the HTRF Detection Cartridges and the IC50 value of each compound in inhibiting the cAMP production was calculated with non-linear regression based on the amount of cAMP production.
(In general: In TR-FRET formats the signal depends on donor and acceptor labels being close together.)

[3] abbreviates: competition with I125-glucagon 0.0625 nM, membrane fractions of GCGR overexpressed CHO-K1 cells.
Where [4] appears, read: inhibition of glucagon (EC50 concentration) induced cAMP production.

Structures are written as SMILES. Like-named read-outs stand apart in the source and are kept apart here.

T1 sequence (P47871 26-477): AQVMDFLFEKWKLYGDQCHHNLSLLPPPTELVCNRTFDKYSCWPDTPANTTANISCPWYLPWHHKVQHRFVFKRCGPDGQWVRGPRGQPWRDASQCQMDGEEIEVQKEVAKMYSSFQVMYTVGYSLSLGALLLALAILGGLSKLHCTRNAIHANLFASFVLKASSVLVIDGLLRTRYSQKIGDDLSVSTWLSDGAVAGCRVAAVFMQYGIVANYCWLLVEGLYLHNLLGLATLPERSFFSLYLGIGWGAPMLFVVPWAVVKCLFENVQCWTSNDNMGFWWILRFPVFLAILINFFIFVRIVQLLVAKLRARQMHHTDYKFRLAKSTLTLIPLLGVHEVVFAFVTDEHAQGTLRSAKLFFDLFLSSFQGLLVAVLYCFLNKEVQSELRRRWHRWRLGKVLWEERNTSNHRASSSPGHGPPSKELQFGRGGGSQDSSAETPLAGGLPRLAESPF
T2 sequence (P47871 26-477): as above

One may read the IC50 as the concentration that gives 50% inhibition. Consider `CC[C@H](C)[C@@H](COc1ccc(-c2ccc(C(F)(F)F)cc2F)c(F)c1)Nc1ccc(C(=O)NCCC(=O)O)cc1` [Compound 8-10, 3-(4-(((2S,3S)-1-((2,2′-difluoro-4′-(trifluoromethyl)-[1,1′-biphenyl]-4-yl)oxy)-3-methylpentan-2-yl)amino)benzamido)propanoic Acid], for which, in assay [1] (setting [3]), the IC50 stood at 0.186 µM. Besides, in assay [2] (setting [4]), the “IC50 cAMP” value amounted to 0.3532 µM.
As to `CCOC(=O)CCNC(=O)c1ccc(N[C@@H](Cc2ccccc2)C(=O)Nc2ccc(-c3ccc(Cl)cc3Cl)cc2)cc1` [Compound 23-15, Ethyl (S)-3-(4-((1-((2′,4′-dichloro-[1,1′-biphenyl]-4-yl)amino)-1-oxo-3-phenylpropan-2-yl)amino)benzamido)propanoate], in assay [1] (uM), the IC50 was > 10 µM. Further, in assay [2], the “IC50 cAMP” value came out at 6.3 µM.
Consider `CC(C)[C@@H](COc1ccc(-c2ccc(C(F)(F)F)cc2F)c(F)c1)Nc1ccc(C(=O)NCCC(=O)O)cc1` [Compound 8-1, (S)-3-(4-((1-((2,2′-difluoro-4′-(trifluoromethyl)-[1,1′-biphenyl]-4-yl)oxy)-3-methylbutan-2-yl)amino)benzamido)propanoic Acid], for which, in assay [1] (setting [3]), the IC50 came out at 0.112 µM. Besides, the “IC50 cAMP” value in assay [2] (setting [4]) came out at 0.0619 µM.
Take `CCCC[C@@H](COc1ccc(-c2ccc(C(F)(F)F)cc2)c(OC)c1)Nc1ccc(C(=O)NCCC(=O)O)cc1` [Compound 13-11, (S)-3-(4-((1-((2-methoxy-4′-(trifluoromethyl)-[, 1′-biphenyl]-4-yl)oxy)hexan-2-yl)amino)benzamido)propanoic Acid]: the IC50 in assay [1] (setting [3]) was 0.047 µM. Moreover, in assay [2] (setting [4]), the “IC50 cAMP” value amounted to 0.118 µM.
In turn, `CC(C)[C@@H](COc1ccc(-c2ccc(C(F)(F)F)cc2)cc1)Nc1ccc(C(=O)NCCC(=O)O)cn1` [Compound 4-1, (S)-3-(6-((3-methyl-1-((4′-(trifluoromethyl)-[1,1′-biphenyl]-4-yl)oxy)butan-2-yl)amino)nicotinamido)propanoic Acid] displayed an IC50 in assay [1] (setting [3]) of 0.369 µM. Moreover, the “IC50 cAMP” value in assay [2] (setting [4]) was found to be 0.6269 µM.
Turning to `CCOC(=O)CCNC(=O)c1ccc(N[C@H](CC(C)C)C(=O)Nc2ccc(C(F)(F)F)cc2)cc1` [Compound 24-9, Ethyl (R)-3-(4-((4-methyl-1-oxo-1-((4-(trifluoromethyl)phenyl)amino)pentan-2-yl)amino)benzamido)propanoate], in assay [1] (uM), the IC50 is > 10 µM. Also, the “IC50 cAMP” value in assay [2] came out at 1.059 µM.
`CC[C@H](C)[C@@H](COc1ccc(-c2cc3ccccc3o2)c(C)n1)Nc1ccc(C(=O)NCCC(=O)O)cc1` [Compound 18-4, 3-(4-(((2S,3S)-1-((5-(benzofuran-2-yl)-6-methylpyridin-2-yl)oxy)-3-methylpentan-2-yl)amino)benzamido)propanoic Acid]: in assay [1], the IC50 stood at 0.203 µM. The “IC50 cAMP” value in assay [2] came to 0.151 µM.
In assay [1] (setting [3]), `CCCC[C@@H](COc1ccc(-c2ccc(Cl)cc2Cl)c(Cl)c1)Nc1ccc(C(=O)NCc2nnn[nH]2)cc1` [Compound 3-13, (S)—N-((1H-tetrazol-5-yl)methyl)-4-((1-((2,2′,4′-trichloro-[1,1′-biphenyl]-4-yl)oxy)hexan-2-yl)amino)benzamide] gave an IC50 of 0.092 µM. For the same molecule, the “IC50 cAMP” value in assay [2] (setting [4]) worked out at 0.2799 µM.
The matching figures for `CC(C)(C)[C@@H](COc1ccc(-c2cc3ccccc3o2)c(Cl)c1)Nc1ccc(C(=O)NCCC(=O)O)cc1` [Compound 3-23, (S)-3-(4-((1-(4-(benzofuran-2-yl)-3-chlorophenoxy)-3,3-dimethylbutan-2-yl)amino)benzamido)propanoic Acid]: 0.156 µM and 0.293 µM.
For `CC(C)[C@@H](COc1ccc(-c2cc(Cl)cc(Cl)c2)nc1)Nc1ccc(C(=O)NCCC(=O)O)cc1` [Compound 10-5, (S)-3-(4-((1-((6-(3,5-dichlorophenyl)pyridin-3-yl)oxy)-3-methylbutan-2-yl)amino)benzamido)propenoic Acid] the same measures were 0.441 µM and 3.69 µM.
In the case of `CC[C@H](C)[C@@H](COc1ccc(-c2ccc(F)cc2F)cn1)Nc1ccc(C(=O)NCCS(=O)(=O)O)cc1` [Compound 15-21, 2-(4-(((2S,3S)-1-((5-(2,4-difluorophenyl)pyridin-2-yl)oxy)-3-methylpentan-2-yl)amino)benzamido)ethane-1-sulfonic Acid], the IC50 in assay [1] stood at 5.28 µM. In addition, the “IC50 cAMP” value in assay [2] is >30 µM.
The molecule `CCCC[C@@H](COc1ccc(-c2cc3ccccc3o2)cc1)Nc1ccc(C(=O)NCCC(=O)O)cc1` [Compound 1-10, (S)-3-(4-((1-(4-(benzofuran-2-yl)phenoxy)hexan-2-yl)amino)benzamido) propanoic Acid] yielded an IC50 in assay [1] (setting [3]) of 0.122 µM. The “IC50 cAMP” value in assay [2] (setting [4]) turned out to be 0.6298 µM.
For `CC(C)[C@H](COc1ccc(-c2cc3ccccc3o2)cc1)Nc1ccc(C(=O)NCCC(=O)O)cc1` [Compound 1-34, (R)-3-(4-((1-(4-(benzofuran-2-yl)phenoxy)-3-methylbutan-2-yl)amino)benzamido) propanoic Acid] the same measures were 0.113 µM and 0.2387 µM.
Consider `CC(C)COC[C@H](Cc1ccc(-c2cccc(C(F)(F)F)c2)cc1)Nc1ccc(C(=O)NCCC(=O)O)cc1` [Compound 19-28, (S)-3-(4-((1-isobutoxy-3-(3′-(trifluoromethyl)-[1,1′-biphenyl]-4-yl)propan-2-yl)amino)benzamido)propanoic Acid], for which the IC50 in assay [1] was found to be 0.872 µM. Besides, the “IC50 cAMP” value in assay [2] was 0.726 µM.
For `O=C(O)CCNC(=O)c1ccc(N[C@@H](Cc2ccccc2)C(=O)Nc2ccc(C(F)(F)F)cc2)cc1` [Compound 24-6, (S)-3-(4-((1-oxo-3-phenyl-1-((4-(trifluoromethyl)phenyl)amino)propan-2-yl)amino)benzamido)propanoic Acid], the IC50 in assay [1] amounted to 7.4 µM. In addition, in assay [2] (uM), the “IC50 cAMP” value was >10 µM.
Consider `Cc1nn(-c2ncc(OC[C@H](CC(C)C)Nc3ccc(C(=O)NCCC(=O)O)cc3)cn2)cc1C(F)(F)F` [Compound 12-1, (S)-3-(4-((4-methyl-1-((2-(3-methyl-4-(trifluoromethyl)-1H-pyrazol-1-yl)pyrimidin-5-yl)oxy)pentan-2-yl)amino)benzamido)propanoic Acid], for which, in assay [1] (setting [3]), the IC50 was found to be 0.674 µM. Further, the “IC50 cAMP” value in assay [2] (setting [4]) is 14.17 µM.
As to `CCOC(=O)CCNC(=O)c1ccc(N[C@@H](Cc2cccc3ccccc23)C(=O)Nc2ccc(C(C)(C)C)cc2)cc1` [Compound 23-17, Ethyl (S)-3-(4-((1-((4-(tert-butyl)phenyl)amino)-3-(naphthalen-1-yl)-1-oxopropan-2-yl)amino)benzamido)propanoate], the IC50 in assay [1] (uM) is > 10 µM. Moreover, the “IC50 cAMP” value in assay [2] amounted to 7.4 µM.
Molecule `O=C(O)CCNC(=O)c1ccc(NC(COc2ccc(-c3cc4ccccc4o3)cc2)c2ccccc2)cc1` (stereo not drawn) [Compound 1-23, 3-(4-((2-(4-(benzofuran-2-yl)phenoxy)-1-phenylethyl)amino)benzamido) propanoic Acid] showed an IC50 in assay [1] (setting [3]) of 0.148 µM. Moreover, in assay [2] (setting [4]), the “IC50 cAMP” value was found to be 0.0398 µM.
`CCC(C)[C@@H](COc1cnc(-c2ccc(C(F)(F)F)cc2Cl)nc1)Nc1ccc(C(=O)NCCC(=O)O)cc1` (stereo partly drawn) [Compound 12-8, 3-(4-(((2S)-1-((2-(2-chloro-4-(trifluoromethyl)phenyl)pyrimidin-5-yl)oxy)-3-methylpentan-2-yl)amino)benzamido)propanoic Acid] gave a half-maximal inhibitory concentration (IC50) in assay [1] (setting [3]) of 0.331 µM. In addition, the “IC50 cAMP” value in assay [2] (setting [4]) was 2.719 µM.
In the case of `CC(C)[C@@H](COc1nnc(-c2ccc(Cl)cc2Cl)o1)Nc1ccc(C(=O)NCCC(=O)O)cc1` [Compound 22-14, (S)-3-(4-((1-((5-(2,4-dichlorophenyl)-1,3,4-oxadiazol-2-yl)oxy)-3-methylbutan-2-yl)amino)benzamido)propanoic Acid], the IC50 in assay [1] is > 30 µM. Moreover, the “IC50 cAMP” value in assay [2] was >30 µM.
For `CC(C)COC[C@H](Cc1ccc(-c2cccc(OC(F)(F)F)c2)cc1)Nc1ccc(C(=O)NCCC(=O)O)cc1` [Compound 19-30, (S)-3-(4-((1-isobutoxy-3-(3′-(trifluoromethoxy)-[1,1′-biphenyl]-4-yl)propan-2-yl)amino)benzamido)propanoic Acid] the same measures were 0.548 µM and 1.104 µM.
